One series deals with sebum production. The series is described as follows: Effect on sebum levels in healthy human volunteers (Sebumeter, Sebutape lipid classes). The format is in vivo. The conditions noted are these: 200 mg BID oral, 14 days. As to the method: Otherwise healthy overweight or obese subjects were admitted to the Clinical Research Institute and dosed orally with Example 1 (200 mg BID) or placebo for 14 consecutive days. On two days pre-treatment and days 13 and 14 (post-treatment) of the study, sebum production was assessed by Sebumeter® measurements and sebum was collected for lipid component identification and quantification. In order to prepare the area of the skin where the Sebumeter® measurements and the sebum collection will be performed, the skin surface has to be cleansed from any lipids and debris. The targeted area on the forehead and the cheeks were gently blotted using an oil-absorbing tissue or gauze. After blotting, wipes or gauze pads presoaked in 70% ethanol solution were used to wipe the forehead and cheeks. Following cleansing, the skin was allowed to dry and sebum measurements were made using a clean, calibrated Sebumeter® SM 815 (Courage+Khazaka, Köln, Germany) in accordance with the manufactures directions at 5 minutes and 3 hours post-cleansing. Sebum levels determined by Sebumeter® are expressed as relative change from pre-treatment baseline for subjects treated with placebo and Example 1 and are presented in FIG. 4. The Sebutape® technique was used for sebum collection. At approximately 9 AM, following facial cleansing and the 5 minute post-cleanse sebumeter measurement, 4 Sebutape® strips were applied: 2 patches placed right and left on the forehead cranial of the middle line of the eye and 2 patches on the cheeks caudal of the middle line of the eye. The Sebutape® was peeled from its backing paper using defatted forceps and affixed to the surface with gentle pressure to assure adequate adhesion. Surgical gloves were to be worn by the person handling the tape. After 1 hour, the 4 patches were removed; the 2 left patches and the 2 right patches were placed in acid-washed, Teflon-capped screw-cap vials. Sebum lipid species were quantified from the Sebutape® samples by Metabolon using their TrueMass® technology platform. Analysis of these sebum samples enabled assessment of the effect of Example 1 vs. placebo on individual sebum lipid classes. […] Individual subject level and box plots depicting means with confidence intervals are shown for sebum triglycerides, wax esters, and free fatty acids (FIG. 5).

For series [1] the following is noted: in vivo.
The nature of series [2]: Human studies: safety, tolerability and pharmacokinetics after oral dosing. The conditions noted are these: for median Tmax: oral.
Series [3] concerns de novo lipogenesis in ear skin and liver. The series is described as follows: Effect of oral and topical ACCi on DNL (14C-acetate incorporation) in Syrian hamsters. In kind it is in vivo, Syrian hamster. The conditions noted are these: topical 100 mg/ml single dose, vs. vehicle. As to the method:
Male Syrian gold Hamster at ˜10 weeks were maintained adlibitum on standard hamster chow and water. […] Example 3 for topical delivery was prepared as a solution in a vehicle consisting of 70:30 (Ethanol:propylene glycol) at a concentration of 100 mg/ml. Topical administration of a single dose (5 ul/ear) was applied to hamster ears with a pipette (2-10 ul) tip adhering to 2 minute intervals following the dosing order. The dosing timing allowed for the formulation to spread evenly over an approximate 1 sq cm area and absorb/dry prior to returning the animal to the cage. 1 hour post ACCi dose each animal received an IP injection of ^14C-labeled acetate (ARC0158B diluted in saline) following the 2 minute interval timing format. Each animal received an individually calculated amount of ^14C-acetate based on body weight (0.1 μCi/g in a dosing volume of 2 μl/g). One hour after the ^14C-Acetate injection animals were sacrificed by CO2 asphyxiation.
Liver and ear skin were collected for de novo lipogenesis determinations (^14C incorporation to lipid). Briefly, 2 liver punches totaling ˜400 mg of liver were collected from the bifurcated median lobe of each animal (using a 8 mm diameter Sklar Tru-punch—Sklar Instruments), rinsed with saline and blotted dry. The tissues were placed into pre-weighed in glass tubes (Pyrex 9826-16×125 mm with PTFE lined caps) containing NaOH (1.5 mL of 2.5 M).
Ear skin samples were prepared for analysis in the following manner. One 8 mm distal biopsy punch (using an 8 mm diameter Sklar Tru-punch—Sklar Instruments) (2 per animal) was taken just above the anatomical “V” in the aural cartilage to standardize sample collection area. The punch was then split into 2 layers (anterior and posterior). The anterior (front) surface is retained for analysis. The anterior skin was placed into pre-weighed in glass tubes (Pyrex 9826-16×125 mm with PTFE lined caps) containing NaOH (1.5 mL of 2.5 M).
Upon completion of the study, the liver and ear skin samples in NaOH were weighed and this weight was used to calculate the mass of the tissue collected. The capped tubes were heated in an dry oven (˜60° C.) until the tissue was fully degraded (˜4-6 hr, gentle vortexing 2-3 times during heating). Following degradation and cooling absolute ethanol (2.5 mL) was added to each sample. The tubes were recapped and vigorously mixed (vortexed) for 60 seconds and allowed to settle overnight at RT. Petroleum ether (4.8 mL) was added to each tube, recapped and the samples were vigorous mixed (60 sec). […] Aquasol-2 scintillation fluid (10 mL) (or other compatible scintillation fluid) was added to each vial and after vortexing the samples were counted in an appropriate scintillation counter (e g. Wallac Rack-Beta 1409 LSC). […]

Values joined by “and” are separate entries in the source; they are usually repeats but may differ in a detail not shown here. Equal entries are not always repeated.

As for `Cc1nc2ccc(C(=O)N3CCC4(CC3)CC(=O)c3c(cnn3C(C)C)C4)cc2[nH]1` [Example 1, 1-isopropyl-1′-(2-methyl-1H-benzo[d]imidazole-5-carbonyl)-4,6-dihydrospiro[indazole-5,4′-piperidin]-7(1H)-one], in the series with sebum production, the “sebum free cholesterol change relative to PBO” value was “no change” and the “sebum squalene levels, increase relative to PBO” value was found to be 2.6 fold. The “reduction of sebum production by Sebumeter from baseline” value in the series with sebum production (PBO adjusted) was 49% and > 49%. In addition, in the series with sebum production (Sebutape), the “reduction of sebum free fatty acids relative to placebo” value is recorded as “approximately 49%” and the “reduction of sebum wax esters relative to placebo” value is recorded as around 53%. Moreover, the “decrease of sebum triglycerides” value in the series with sebum production (Sebutape, PBO adjusted) turned out to be 66%. Besides, in the series on sebum production (vs. placebo), the “levels of sebum free fatty acids (in words)” value is reported as “reduced” and the “levels of sebum wax esters (in words)” value is “reduced”. For the same compound, in series [1], the “exposures (AUC and Cmax) vs. dose” value is listed as “increased dose-proportionally”. Moreover, in series [1] (po), the “effect of food on absorption” value is given as “modestly decreased the rate but not the extent”; the “frequency of adverse events vs. dose and duration” value is listed as “no dose- or duration-related increase”. In series [2] (fasted state), the “median Tmax” value lay within 1 to 2 h. In addition, the “median Tmax” value in series [2] (fed state) was 3 to 4 h. In series [2] (single doses up to 800 mg, repeated doses up to 400 mg/day), the maximum tolerated dose result is “not established”.

In the case of `CC(C)n1ncc2c1C(=O)CC1(CCN(C(=O)c3ccc4ccc(N)nc4c3)CC1)C2` [Example 3, 1′-(2-aminoquinoline-7-carbonyl)-1-isopropyl-4,6-dihydrospiro[indazole-5,4′-piperidin]-7(1H)-one], in series [3], the “incorporation of de novo synthesized fatty acids in liver” value was “failed to inhibit” and the “incorporation of de novo synthesized fatty acids in skin” value is “failed to inhibit”.
